Counter-ions that a name gives are not always drawn.

One assay addresses T1, human His-PIM1 [2-313] (Homo sapiens, UniProt P11309).
T1 construct: purified human His-PIM1 [2-313] enzyme; His (N); purchased University of Dundee, Scotland; host or cells: baculovirus system
The assay can be described thus: PIM1 in-vitro mobility shift assay (Caliper LC3000, FL-Ahx-Bad phosphorylation). Type of assay: biochemical. The conditions noted are these: 1.5 h; percent inhibition at 0.3 uM compound; read-out: PIM1 % I at 0.3 uM. An excerpt:
PIM1 In-Vitro Mobility Shift Assay
One may determine the activity of purified human His-PIM1 [2-313] enzyme in-vitro using a mobility shift assay on a Caliper LC3000 reader (Caliper, Mass.), which measures fluorescence of a phosphorylated and unphosphorylated FL-Ahx-Bad (FITC-(AHX)RSRHSSYPAGT-COOH, Primm 200606-00289, Primm Biotech, Mass.) and calculates a ratiometric value to determine percent turnover. One may express PIM1 (University of Dundee, Scotland) in baculovirus system with a typical yield of >85% purity.
(§1) One determines phosphorylation of the FL-Ahx-Bad in the presence and absence of the compound of interest. One preincubates 5 µl of Enzyme/Substrate/adenosine triphosphate (ATP) mix consisting of 2.4 nM PIM1, 3.6 uM FL-Ahx-Bad, and 240 uM ATP in 1.2× buffer with 2 ul of compound for 20 minutes at 25° C. One initiates reactions with 5 ul of Metal mix consisting of 24 mM MgCl2 in 1.2× buffer and incubated at 25° C. for 90 minutes and stops the reactions by addition of 5 ul of Stop mix consisting of 100 mM HEPES, 121 mM ethylenediamine tetraacetic acid, 0.8% Coatin Reagent 3 (Caliper, Mass.), and 0.01% Tween. One detects phosphorylated and unphosphorylated substrate by a Caliper LC3000 reader (Caliper, Mass.) in the presence of separation buffer consisting of 100 mM HEPES, 16 mM ethylenediamine tetraacetic acid, 0.1% Coatin Reagent 3 (Caliper, Mass.), 0.015% Brij-35, 5% DMSO, and 5.6 mM MgCl2. One may use the following separation conditions for a Caliper LC3000: −1.0 PSI, −2000 V upstream voltage, −400 V downstream voltage, 0.2 second sample sip, 45 second post sip, 10% laser strength.
The table 1 below provides the percent inhibition of PIM1 at 0.3 micromolar for Examples provided herein. Several examples were tested more than once. Variations in the experimental outcomes, negative values, or values over 100% inhibition are presumably due to experimental error inherent in the assay.

Another assay has as its target T2, human His-PIM2 [23-299] (Homo sapiens, UniProt Q9P1W9).
T2 construct: purified human His-PIM2 [23-299] enzyme; His (N); host or cells: E. coli
Kind of assay: PIM2 in-vitro mobility shift assay (Caliper LC3000, FL-Ahx-Bad phosphorylation). Type of assay: biochemical. The conditions noted are these: 1.5 h; percent inhibition at 0.3 uM compound; read-out: PIM2 % I at 0.3 uM.
Description: PIM2 In-Vitro Mobility Shift Assay
One may determine the activity of purified human His-PIM2 [23-299] enzyme in-vitro using a mobility shift assay on a Caliper LC3000 reader (Caliper, Mass.), which measures fluorescence of a phosphorylated and unphosphorylated FL-Ahx-Bad (FITC-(AHX)RSRHSSYPAGT-COOH, Primm 200606-00289, Primm Biotech, Mass.) and calculates a ratiometric value to determine percent turnover. One may express PIM2 (produced at AstraZeneca, R&D Boston) in E. coli cells with a typical yield of >90% purity.
as §1, with “5 uL” for “5 µl”, “and 12” for “and 240”, “5 uL” for “5 ul”, “and incubates” for “and incubated”, “90 minutes. One” for “90 minutes and”, “stops” for “stops the”

T2 sequence (Q9P1W9 23-299): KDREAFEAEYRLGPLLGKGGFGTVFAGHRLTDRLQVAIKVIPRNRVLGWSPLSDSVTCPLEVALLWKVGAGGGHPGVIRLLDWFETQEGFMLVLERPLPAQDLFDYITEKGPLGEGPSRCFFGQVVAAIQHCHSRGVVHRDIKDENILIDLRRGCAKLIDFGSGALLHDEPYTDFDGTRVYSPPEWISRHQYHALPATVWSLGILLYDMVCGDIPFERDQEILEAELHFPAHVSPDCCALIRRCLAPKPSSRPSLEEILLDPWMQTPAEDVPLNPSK
T1 sequence (P11309 2-313): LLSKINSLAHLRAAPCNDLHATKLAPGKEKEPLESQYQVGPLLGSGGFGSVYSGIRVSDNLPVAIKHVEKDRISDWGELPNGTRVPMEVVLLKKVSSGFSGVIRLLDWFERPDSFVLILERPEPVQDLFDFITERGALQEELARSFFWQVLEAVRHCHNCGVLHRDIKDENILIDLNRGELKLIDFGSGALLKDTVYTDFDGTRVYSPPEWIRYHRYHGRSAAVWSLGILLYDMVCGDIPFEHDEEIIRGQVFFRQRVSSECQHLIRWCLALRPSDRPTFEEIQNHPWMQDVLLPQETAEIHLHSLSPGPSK

As to `N[C@@H]1CCCN(c2c(/C=C3\SC(=O)NC3=O)cccc2-c2ccccc2)C1` [Example 122AI, (R,Z)-5-((2-(3-aminopiperidin-1-yl)biphenyl-3-yl)methylene)thiaozlidine-2,4-dione], the inhibition at 0.3 µM on human His-PIM1 [2-313] and at human His-PIM2 [23-299] was over 95% in each case.

Take `CN1CCN(Cc2cccc(/C=C3\SC(=O)NC3=O)c2)CC1` [Example 84E, (Z)-5-(3-((4-methylpiperazin-1-yl)methyl)benzylidene)thiazolidine-2,4-dione]: the values for the inhibition at 0.3 µM on human His-PIM1 [2-313] and at human His-PIM2 [23-299] were 11.7% and 6.1%, respectively.

As for `COc1cc(/C=C2\SC(=O)NC2=O)c(N2CCC(NC(C)=O)C2)cc1OC` (stereo not drawn) [Example 131A], the inhibition at 0.3 µM was 27.1% at human His-PIM1 [2-313] and under 5% at human His-PIM2 [23-299].

For `NCc1cccc(C(=O)N2CCN(c3ccccc3/C=C3\SC(=O)NC3=O)CC2)c1` [Example 110, (Z)-5-(2-(4-(3-(aminomethyl)benzoyl)piperazin-1-yl)benzylidene)thiazolidine-2,4-dione hydrochloride], the inhibition at 0.3 µM turned out to be 90.9% on human His-PIM1 [2-313] and 90.7% on human His-PIM2 [23-299].

With `COc1ccc(OCCCN)c(C=C2SC(=O)NC2=O)c1` [Example 129C], the inhibition at 0.3 µM was found to be 85% on human His-PIM1 [2-313] and 52.1% on human His-PIM2 [23-299].

As to `Cn1ccnc1C(=O)N[C@H]1CCN(c2c(Cl)cccc2/C=C2\SC(=O)NC2=O)C1` [Example 135, (S,Z)-N-(1-(2-chloro-6-((2,4-dioxothiazolidin-5-ylidene)methyl)phenyl)pyrrolidin-3-yl)-1-methyl-1H-imidazole-2-carboxamide], the inhibition at 0.3 µM on human His-PIM1 [2-313] amounted to 42.5%; at human His-PIM2 [23-299], 10.8%.

Consider `O=C1NC(=O)/C(=C/c2ccncc2)S1` [Example 72, (Z)-5-(pyridin-4-ylmethylene)thiazolidine-2,4-dione], for which the inhibition at 0.3 µM on human His-PIM1 [2-313] and at human His-PIM2 [23-299] was under 5% each time.

For `COc1cc(/C=C2\SC(=O)NC2=O)c(N2CC[C@H](NCCCN)C2)cc1OC` [Example 121, (S,Z)-5-(2-(3-(3-aminopropylamino)pyrrolidin-1-yl)-4,5-dimethoxybenzylidene)thiazolidine-2,4-dione hydrochloride], the inhibition at 0.3 µM was over 95% on human His-PIM1 [2-313] and 87.4% at human His-PIM2 [23-299].

As for `COc1ccc(OCCCNC(C)C)c(C=C2SC(=O)NC2=O)c1` [Example 150], the inhibition at 0.3 µM on human His-PIM1 [2-313] stood at 79.8%; at human His-PIM2 [23-299], 31.7%.

For the molecule `NC(=O)COc1cccc(/C=C2\SC(=O)NC2=O)c1` [Example 84C, (Z)-2-(3-((2,4-dioxothiazolidin-5-ylidene)methyl)phenoxy)acetamide], the values for the inhibition at 0.3 µM on human His-PIM1 [2-313] and on human His-PIM2 [23-299] were 47.8% and 29.6%, respectively.

As to `CN(C)C(=O)CCC(=O)N[C@H]1CCN(c2c(Cl)cccc2/C=C2\SC(=O)NC2=O)C1` [Example 144], the inhibition at 0.3 µM on human His-PIM1 [2-313] worked out at 63.2%; on human His-PIM2 [23-299], 21.2%.

For the molecule `CCCCN1CCCN(c2c(Cl)cc(C(F)(F)F)cc2/C=C2\SC(=O)NC2=O)CC1` [Example 27], the inhibition at 0.3 µM on human His-PIM1 [2-313] was 90.8%; at human His-PIM2 [23-299], 25.1%.

As to `COc1cc(/C=C2\SC(=O)NC2=O)c(N2CC[C@H](NC(=O)CCCCN)C2)cc1OC` [Example 120, (S,Z)-5-amino-N-(1-(2-((2,4-dioxothiazolidin-5-ylidene)methyl)-4,5-dimethoxyphenyl)pyrrolidin-3-yl)pentanamide hydrochloride], the inhibition at 0.3 µM on human His-PIM1 [2-313] was 58.9%; at human His-PIM2 [23-299], 22.2%.

Take `COc1cc(/C=C2\SC(=O)NC2=O)c(N2CC[C@@H](N(C)C)C2)cc1OC` [Example 39, (R,Z)-5-(2-(3-(dimethylamino)pyrrrolidin-1-yl)-4,5-dimethoxybenzylidene)thiazolidine-2,4-dione]: the values for the inhibition at 0.3 µM on human His-PIM1 [2-313] and at human His-PIM2 [23-299] were 89.4% and 57.3%, respectively.

As for `Cn1ccc2cc(/C=C3\SC(=O)NC3=O)ccc21` [Example 76, (5Z)-5-[(1-methyl-1H-indol-5-yl)methylene]-1,3-thiazolidine-2,4-dione], the inhibition at 0.3 µM at human His-PIM1 [2-313] was 59.6%; at human His-PIM2 [23-299] it was 27.6%.

The values above are taken from patent US8901307B2, “Chemical compounds 251” (AstraZeneca AB, priority 2008, dated 2014).
